Source: PubChem BioAssay AID248 (DTP/NCI, 2004)
Several values for one entry are separate records, joined by “and”; a condition that tells them apart may be missing. Identical values can stand only once. Inconclusive results and toxic doses are left out. Cut-off read from the data, not from the text of the source: active = T/C of 150% or more; inactive = T/C below 125%.

System: L1210 leukemia ip in BDF1 mice, survival T/C
Test: NCI In Vivo Anticancer Drug Screen. Data for tumor model L1210 Leukemia (intraperitoneal) in B6D2F1 (BDF1) mice
Conditions: endpoint: mean survival time, higher = longer survival
In short: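 Ratio derived from survival: compound-dosed mice over vehicle-dosed mice, all bearing a transplantable tumor.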

[1] = dose: 100.0 mg/kg/injection, schedule: Q01DX001 (ip), vehicle: saline
[2] = dose: 200.0 mg/kg/injection, schedule: Q01DX001 (ip), vehicle: saline
[3] = dose: 400.0 mg/kg/injection, schedule: Q01DX001 (ip), vehicle: saline
[4] = dose: 100.0 mg/kg/injection, schedule: Q04DX002 (ip), vehicle: saline with Tween-80
[5] = dose: 100.0 mg/kg/injection, schedule: Q04DX003 (ip), vehicle: Klucel (hydroxypropylcellulose) (HPC)
[6] = dose: 200.0 mg/kg/injection, schedule: Q04DX003 (ip), vehicle: Klucel (hydroxypropylcellulose) (HPC)
[7] = dose: 50.0 mg/kg/injection, schedule: Q01DX009 (ip), vehicle: saline with Tween-80
[8] = dose: 100.0 mg/kg/injection, schedule: Q01DX009 (ip), vehicle: saline with Tween-80
[9] = dose: 200.0 mg/kg/injection, schedule: Q01DX009 (ip), vehicle: saline with Tween-80
[10] = dose: 100.0 mg/kg/injection, schedule: Q01DX001 (ip), vehicle: Klucel (hydroxypropylcellulose) (HPC)
[11] = dose: 200.0 mg/kg/injection, schedule: Q01DX001 (ip), vehicle: Klucel (hydroxypropylcellulose) (HPC)
[12] = dose: 400.0 mg/kg/injection, schedule: Q01DX001 (ip), vehicle: Klucel (hydroxypropylcellulose) (HPC)
[13] = dose: 25.0 mg/kg/injection, schedule: Q04DX002 (ip), vehicle: saline with Tween-80
[14] = dose: 50.0 mg/kg/injection, schedule: Q04DX002 (ip), vehicle: saline with Tween-80

Measured: T/C

Cc1c(C(=O)/C=C/c2ccccc2)cc([N+](=O)[O-])cc1[N+](=O)[O-]
inactive: dose: 50.0 mg/kg/injection, schedule: Q01DX001 (ip), vehicle: saline 92 % of control | [1] 98 % of control | [2] 100 % of control | [3] 93 % of control

CCCCC(CCCC)(C(=O)OCC)C(=O)OCC
inactive: [4] 94 % of control | [5] 96 % of control | dose: 200.0 mg/kg/injection, schedule: Q04DX002 (ip), vehicle: saline with Tween-80 94 % of control | [6] 105 % of control | dose: 400.0 mg/kg/injection, schedule: Q04DX002 (ip), vehicle: saline with Tween-80 94 % of control | dose: 400.0 mg/kg/injection, schedule: Q04DX003 (ip), vehicle: Klucel (hydroxypropylcellulose) (HPC) 91 % of control

COc1ccc(OC(=O)Nc2ccc(Cl)cc2Cl)cc1
inactive: [7] 102 % of control | [8] 91 % of control | [9] 98 % of control

O=C(NCCCCC(NC(=O)OCc1ccccc1)C(=O)Nc1ccc(Nc2ccc(NC(=O)C(CCCCNC(=O)OCc3ccccc3)NC(=O)OCc3ccccc3)cc2)cc1)OCc1ccccc1 (configuration not stated)
inactive: [1] 88 % of control | [2] 92 % of control | [3] 94 % of control

COc1ccc(C2CCCCCC2OC(=O)c2ccc([N+](=O)[O-])cc2)c(OC)c1OC (configuration not stated)
inactive: dose: 100.0 mg/kg/injection, schedule: Q01DX001 (ip), vehicle: other 96 % of control | dose: 200.0 mg/kg/injection, schedule: Q01DX001 (ip), vehicle: other 106 % of control | dose: 400.0 mg/kg/injection, schedule: Q01DX001 (ip), vehicle: other 96 % of control

CCCCCCCCCCCCCC(=O)[O][Hg][c]1ccccc1
inactive: dose: 75.0 mg/kg/injection, schedule: Q01DX001 (ip), vehicle: steriod suspending solution 96 % of control

O=C(NCCCl)NC1C(O)CCCC1O (configuration not stated)
inactive: [1] 103 % of control | [2] 97 % of control | [3] 103 % of control

O=C1C=CC(=C(Br)Br)O1
inactive: dose: 12.5 mg/kg/injection, schedule: Q04DX003 (ip), vehicle: saline with Tween-80 92 % of control | dose: 12.5 mg/kg/injection, schedule: Q04DX003 (ip), vehicle: saline 97 % of control | dose: 25.0 mg/kg/injection, schedule: Q04DX003 (ip), vehicle: saline with Tween-80 103 % of control | dose: 25.0 mg/kg/injection, schedule: Q04DX003 (ip), vehicle: saline 95 % of control | dose: 50.0 mg/kg/injection, schedule: Q04DX003 (ip), vehicle: saline 92 % of control | dose: 100.0 mg/kg/injection, schedule: Q04DX003 (ip), vehicle: saline 98 % of control

C=CCNC(=S)N(Cc1ccccc1)Cc1ccccc1
inactive: dose: 100.0 mg/kg/injection, schedule: Q04DX002 (ip), vehicle: Klucel (hydroxypropylcellulose) (HPC) 105 % of control | dose: 200.0 mg/kg/injection, schedule: Q04DX002 (ip), vehicle: Klucel (hydroxypropylcellulose) (HPC) 101 % of control | dose: 400.0 mg/kg/injection, schedule: Q04DX002 (ip), vehicle: Klucel (hydroxypropylcellulose) (HPC) 94 % of control

Oc1ccc(Cl)cc1C(c1cc(Cl)ccc1O)C(Cl)(Cl)Cl
inactive: dose: 100.0 mg/kg/injection, schedule: Q04DX002 (ip), vehicle: saline + alcohol 99 % of control | dose: 200.0 mg/kg/injection, schedule: Q04DX002 (ip), vehicle: saline + alcohol 108 % of control | dose: 400.0 mg/kg/injection, schedule: Q04DX002 (ip), vehicle: saline + alcohol 102 % of control

Nc1nc2nc(N=Nc3ccc(C(=O)O)c(O)c3)[nH]c2c(=O)[nH]1
inactive: [5] 99 % of control | [6] 88 % of control

CN(C)C(=O)Nc1nc2cc(Cl)c(Cl)cc2[nH]1
inactive: [10] 98 % of control | [11] 100 % of control | [12] 94 % of control

COc1ccccc1/C=N\NC(=O)c1ccco1
inactive: dose: 100.0 mg/kg/injection, schedule: Q01DX001 (ip), vehicle: carboxymethylcellulose (CMC) 95 % of control | dose: 200.0 mg/kg/injection, schedule: Q01DX001 (ip), vehicle: carboxymethylcellulose (CMC) 93 % of control | dose: 400.0 mg/kg/injection, schedule: Q01DX001 (ip), vehicle: carboxymethylcellulose (CMC) 95 % of control

CN(C)C1c2ccccc2-c2cccc(C(=O)O)c21 (configuration not stated)
inactive: [1] 108 % of control | [2] 103 % of control | [3] 103 % of control

Cc1ccc2c(c1)NP(=O)(c1ccccc1)S2 (configuration not stated)
inactive: [13] 89 % of control | [14] 92 % of control | [4] 102 % of control and 89 % of control

CN(CC(=O)NCCCCCCCCCCNC(=O)CN(C)C(=O)OCc1ccccc1)C(=O)OCc1ccccc1
inactive: dose: 10.0 mg/kg/injection, schedule: Q01DX Z (ip), vehicle: saline 94 % of control | dose: 30.0 mg/kg/injection, schedule: Q01DX Z (ip), vehicle: saline 88 % of control | dose: 100.0 mg/kg/injection, schedule: Q01DX Z (ip), vehicle: saline 91 % of control | dose: 300.0 mg/kg/injection, schedule: Q01DX Z (ip), vehicle: saline 88 % of control

O=C(Nc1ccc2c3c(cccc13)CC2)c1cccc([N+](=O)[O-])c1
inactive: dose: 100.0 mg/kg/injection, schedule: Q01DX001 (ip), vehicle: saline with Tween-80 102 % of control | dose: 200.0 mg/kg/injection, schedule: Q01DX001 (ip), vehicle: saline with Tween-80 94 % of control | dose: 400.0 mg/kg/injection, schedule: Q01DX001 (ip), vehicle: saline with Tween-80 96 % of control

O=C(O)C(CCCN1C(=O)c2ccccc2C1=O)N1C(=O)c2ccccc2C1=O (configuration not stated)
inactive: dose: 100.0 mg/kg/injection, schedule: Q01DX009 (ip), vehicle: Klucel (hydroxypropylcellulose) (HPC) 93 % of control | dose: 200.0 mg/kg/injection, schedule: Q01DX009 (ip), vehicle: Klucel (hydroxypropylcellulose) (HPC) 94 % of control | dose: 400.0 mg/kg/injection, schedule: Q01DX009 (ip), vehicle: Klucel (hydroxypropylcellulose) (HPC) 98 % of control

Fc1c(F)c(F)[c]([Hg][c]2c(F)c(F)c(F)c(F)c2F)c(F)c1F
inactive: dose: 3.13 mg/kg/injection, schedule: Q04DX002 (ip), vehicle: saline with Tween-80 107 % of control | dose: 6.25 mg/kg/injection, schedule: Q04DX002 (ip), vehicle: saline with Tween-80 93 % of control | dose: 12.5 mg/kg/injection, schedule: Q04DX002 (ip), vehicle: saline with Tween-80 87 % of control | [13] 97 % of control

CCCc1ccc(OCC=C(C)C)cc1
inactive: [14] 100 % of control | [4] 100 % of control

CC(C)(C(=O)Oc1ccccc1)C(=O)Oc1ccccc1
inactive: [7] 95 % of control | [8] 100 % of control | [9] 88 % of control

O=C(O)C1=C(C2CCCCC2)C(=O)c2ccccc21
inactive: dose: 75.0 mg/kg/injection, schedule: Q01DX001 (ip), vehicle: other 112 % of control | dose: 150.0 mg/kg/injection, schedule: Q01DX001 (ip), vehicle: other 93 % of control | dose: 300.0 mg/kg/injection, schedule: Q01DX001 (ip), vehicle: other 102 % of control

[N-]=[N+]=N/C(=C\c1ccccc1)C(=O)c1ccccc1
inactive: [10] 94 % of control | dose: 100.0 mg/kg/injection, schedule: Q04DX003 (ip), vehicle: other 100 % of control | [11] 98 % of control | dose: 200.0 mg/kg/injection, schedule: Q04DX003 (ip), vehicle: other 98 % of control | [12] 94 % of control | dose: 400.0 mg/kg/injection, schedule: Q04DX003 (ip), vehicle: other 91 % of control
